Results taken from US8716285B2, “N-hydroxy-benzamids for the treatment of cancer” (Hoffmann-La Roche Inc., priority 2010, dated 2014).

Tests used:
RPMI-8226 cells = experiment: Growth inhibitory synergy with Velcade, WST/CCK-8 assay; assay type: cell-based; settings: 72 h
Method: Cells were seeded in 96-well culture plates (200 μl/well at different seeding concentrations depending on cell type) and incubated overnight at 37° C. in 5% CO2. After adding compound dilutions to the cells (DMSO concentration kept below 0.5%), the cells were incubated at 37° C. in 5% CO2 for 72 hours. The effects on proliferation were determined by addition of CCK-8 reagent (Dojindo) according to the manufacturer's instruction, followed by incubation for 2 hours at 37° C. in 5% CO2, and finally recording the absorbance at 450 nm using an ELISA plate reader.
Novel compounds were tested for their synergistic effect with Velcade in multiple myeloma cells in vitro. Briefly, the multiple myeloma cells (RPMI-8226, OPM-2, or NCI-H929) were seeded into 96 well plate at 18000-20000 cells per well. The GI50s of these compounds against myeloma cells were measured by WST assay. […] The tested compound and Velcade used the same dilution factor in the combination treatment. […] After 72 h treatment, cell viability was measured at 450 nm by SpectraMAX190 after 2 h incubation with CCK8 reagent at 37° C. Synergy between the tested compounds and velcade was analyzed by software Calcusyn. […]
Notes: Chou and Talalay in 1983 proposed the designation of CI (combination index)=1 as the additive effect. […] It can be calculated by the equation above. […]

HDAC6 = HDAC6 (Homo sapiens (Human), UniProt Q9UBN7); experiment: Tubulin acetylation cytoblot assay (A549 cells); assay type: cell-based; settings: 17-18 h, concentration for 50% induction of acetylated tubulin, read-out: Tub-ac EC50
[1] = system: p21 promoter-luciferase construct; experiment: p21 reporter gene induction in HeLa cells transfected with p21 promoter-luciferase construct; assay type: cell-based; settings: for p21 RP3: relative gene level of p21 induced compared to MS275 at 3 μM; for p21 RP10: relative level of p21 induced compared to MS275 at 10 μM; for p21 RP30: relative level of p21 induced compared to MS275 at 30 μM
recombinant human HDAC8 = recombinant human HDAC8 (Homo sapiens (Human), UniProt Q9BY41); experiment: HDAC8 inhibition: recombinant HDAC8 fluorometric assay; assay type: biochemical; settings: recombinant human HDAC8, substrate Ac-Arg-His-Lys-Lys(ε-acetyl)-AMC
recombinant human HDAC8, sequence (Q9BY41 whole entry): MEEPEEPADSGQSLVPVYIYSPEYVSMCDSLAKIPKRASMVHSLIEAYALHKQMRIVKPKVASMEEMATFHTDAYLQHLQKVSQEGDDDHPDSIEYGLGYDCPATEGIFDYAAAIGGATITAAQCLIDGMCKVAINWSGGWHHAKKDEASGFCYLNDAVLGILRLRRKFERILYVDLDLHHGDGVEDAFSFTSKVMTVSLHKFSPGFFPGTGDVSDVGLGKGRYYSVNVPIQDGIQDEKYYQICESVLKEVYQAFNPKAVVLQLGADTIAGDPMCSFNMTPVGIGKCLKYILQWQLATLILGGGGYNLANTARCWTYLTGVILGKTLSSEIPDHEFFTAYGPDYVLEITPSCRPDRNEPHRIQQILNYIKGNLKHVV

HDAC6, sequence (Q9UBN7 whole entry): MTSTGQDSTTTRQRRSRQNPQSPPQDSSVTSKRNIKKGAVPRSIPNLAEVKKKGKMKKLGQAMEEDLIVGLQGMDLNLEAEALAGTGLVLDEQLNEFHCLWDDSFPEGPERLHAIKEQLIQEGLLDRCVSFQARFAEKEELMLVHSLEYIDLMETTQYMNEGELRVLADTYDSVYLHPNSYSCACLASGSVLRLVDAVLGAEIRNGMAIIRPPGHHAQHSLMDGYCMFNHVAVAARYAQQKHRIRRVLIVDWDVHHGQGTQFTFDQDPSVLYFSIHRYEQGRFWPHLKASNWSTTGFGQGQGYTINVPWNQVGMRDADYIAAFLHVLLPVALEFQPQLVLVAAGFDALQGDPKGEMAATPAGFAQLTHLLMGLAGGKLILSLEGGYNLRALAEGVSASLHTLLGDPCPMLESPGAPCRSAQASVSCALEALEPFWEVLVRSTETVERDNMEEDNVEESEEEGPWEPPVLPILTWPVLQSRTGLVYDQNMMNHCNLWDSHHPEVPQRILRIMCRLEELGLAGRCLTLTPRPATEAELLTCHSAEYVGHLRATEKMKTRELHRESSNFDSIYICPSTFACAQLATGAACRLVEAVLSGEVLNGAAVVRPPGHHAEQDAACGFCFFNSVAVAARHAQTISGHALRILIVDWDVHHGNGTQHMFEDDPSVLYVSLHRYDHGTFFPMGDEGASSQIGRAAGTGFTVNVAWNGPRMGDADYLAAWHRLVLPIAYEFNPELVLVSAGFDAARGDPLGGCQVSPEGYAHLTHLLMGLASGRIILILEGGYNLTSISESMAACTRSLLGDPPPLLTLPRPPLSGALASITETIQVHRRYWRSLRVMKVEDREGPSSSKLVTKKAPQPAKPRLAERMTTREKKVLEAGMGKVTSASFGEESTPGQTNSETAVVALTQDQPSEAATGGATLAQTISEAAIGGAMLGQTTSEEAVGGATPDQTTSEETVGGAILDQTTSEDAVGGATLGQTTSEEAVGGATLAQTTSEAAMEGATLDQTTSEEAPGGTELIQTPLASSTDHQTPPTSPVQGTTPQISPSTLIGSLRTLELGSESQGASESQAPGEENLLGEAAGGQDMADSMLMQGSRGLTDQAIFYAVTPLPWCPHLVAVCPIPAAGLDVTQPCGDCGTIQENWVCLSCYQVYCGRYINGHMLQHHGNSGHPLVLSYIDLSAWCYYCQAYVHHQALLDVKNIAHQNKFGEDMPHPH

Row | Compound | synergy with Velcade in cell growth inhibition (RPMI-8226 cells) | EC50 (HDAC6) [µM] | p21 RP3 [1] | p21 RP10 [1] | p21 RP30 [1] | IC50 (recombinant human HDAC8) [µM]
1 | O=C(NO)c1ccc2c(c1)CC(Nc1nccc(-c3cccnc3)n1)CC2 (stereo not drawn) [Example 24, 7-(4-Pyridin-3-yl-pyrimidin-2-ylamino)-5,6,7,8-tetrahydro-naphthalene-2-carboxylic acid hydroxyamide] | synergized with Velcade | – | – | – | – | –
2 | COc1cccc(C(=O)NC2CNc3ccc(C(=O)NO)cc3C2)c1 (stereo not drawn) [Example 54, 3-(3-Methoxy-benzoylamino)-1,2,3,4-tetrahydro-quinoline-6-carboxylic acid hydroxyamide] | – | 3.39 | 0.03 | 0.03 | 0.07 | 2.81
3 | O=C(NO)c1ccc2c(c1)CC(NC(=O)c1ccc(Cl)cc1)CN2 (stereo not drawn) [Example 55, 3-(4-Chloro-benzoylamino)-1,2,3,4-tetrahydro-quinoline-6-carboxylic acid hydroxyamide] | – | 2.69 | 0.50 | 0.13 | 0.06 | 2.41
4 | O=C(NO)c1ccc2c(c1)CC(NC(=O)c1cccc(Cl)c1)CN2 (stereo not drawn) [Example 56, 3-(3-Chloro-benzoylamino)-1,2,3,4-tetrahydro-quinoline-6-carboxylic acid hydroxyamide] | – | 3.43 | 0.04 | 0.05 | 0.12 | 3.37
5 | O=C(NO)c1ccc2c(c1)CC(NC(=O)c1cccc(C(F)(F)F)c1)CN2 (stereo not drawn) [Example 57, 3-(3-Trifluoromethyl-benzoylamino)-1,2,3,4-tetrahydro-quinoline-6-carboxylic acid hydroxyamide] | – | 7.13 | 0.07 | 0.01 | 0.04 | 2.67
6 | O=C(NO)c1ccc2c(c1)CC(NC(=O)c1ccc(Cl)c(Cl)c1)CN2 (stereo not drawn) [Example 58, 3-(3,4-Dichloro-benzoylamino)-1,2,3,4-tetrahydro-quinoline-6-carboxylic acid hydroxyamide] | – | 5.36 | 0.03 | −0.03 | 0.01 | 2.63
7 | O=C(NO)c1ccc2c(c1)CC(NC(=O)c1ccc(-c3ccccc3)cc1)CN2 (stereo not drawn) [Example 59, 3-[(Biphenyl-4-carbonyl)-amino]-1,2,3,4-tetrahydro-quinoline-6-carboxylic acid hydroxyamide] | – | 7.99 | 0.20 | 0.08 | 0.15 | 2.85
8 | CN1CC(NS(=O)(=O)c2ccc(Cl)cc2)Cc2cc(C(=O)NO)ccc21 (stereo not drawn) [Example 65, 3-(4-Chloro-benzenesulfonylamino)-1-methyl-1,2,3,4-tetrahydro-quinoline-6-carboxylic acid hydroxyamide] | – | 10.6 | 0.41 | 0.26 | 0.46 | 0.75
